# Laboratory results published in PubChem BioAssay AID1648 (Sanford-Burnham Center for Chemical Genomics, 2009).
# The source made the active and inactive calls. No rule for the calls is given here.
# Biological target: Serine/threonine-protein kinase mTOR (Homo sapiens) (UniProt P42345)
# Test: mTOR FRB domain ligand binding – biophysical, NMR (AID 1648)
# Conditions: NMR binding to FRB domain, chemical shift
# Serine/threonine-protein kinase mTOR (Homo sapiens), sequence (P42345 2015-2114): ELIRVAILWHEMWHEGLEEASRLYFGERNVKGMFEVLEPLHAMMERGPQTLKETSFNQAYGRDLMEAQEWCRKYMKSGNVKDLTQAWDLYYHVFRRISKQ
row,Structure (SMILES),Kd
1,COc1cccc(C(=O)N2CCOCC2)c1,> 4 mM (inactive)
2,CC1(C)C2CC(=O)[C@]3(C)C(CC[C@@]4(C)[C@H](c5ccoc5)OC(=O)C5OC543)[C@@]2(C)[C@@H](O)C[C@H]1O (stereo partly specified),> 4 mM (inactive)
3,Nc1ccc(N2CCOCC2)cc1,> 4 mM (inactive)
4,CC(=O)N=c1cccc(NC(C)=O)n1O,> 4 mM (inactive)
5,COC(=O)c1ccc(Cl)c(NC(C)=O)c1,> 4 mM (inactive)
6,O=C(CCc1ccc(O)cc1)c1c(O)cc(O)cc1O,> 4 mM (inactive)
7,COC(=O)c1c(SC)nc(-c2ccccc2)[nH]c1=O,> 4 mM (inactive)
8,Nc1cc(=O)[nH]c(=S)n1-c1cccc(C(F)(F)F)c1,> 4 mM (inactive)
9,COC(CC(=O)O)c1nc2ccccc2s1 (stereo unspecified),> 4 mM (inactive)
10,COc1c2ccoc2cc2oc(=O)ccc12,> 4 mM (inactive)
11,COc1cc2ccc(=O)oc2c2ccoc12,> 4 mM (inactive)
12,O=c1[nH]nnc2sc3c(c12)CCCC3,> 4 mM (inactive)
13,CCn1c(C)c(C(C)=O)c(N2CCN(C)CC2)nc1=S,> 4 mM (inactive)
14,COc1cc(O)c2c(=O)c(O)c(-c3ccc(O)c(O)c3)oc2c1,> 4 mM (inactive)
15,COC(=O)CCC(C)C1CCC2C3CCC4C[C@H](O)CC[C@]4(C)C3C[C@H](O)[C@]12C (stereo partly specified),> 4 mM (inactive)
16,CCOC(=O)C1=C(C)N2CCN=C2S1,> 4 mM (inactive)
17,O=C(NC1=NCCS1)c1ccc2snnc2c1,> 4 mM (inactive)
18,O=c1ccn(Cc2ccccc2)c(=O)n1Cc1ccccc1,> 4 mM (inactive)
19,Cc1ccc(NC(=O)N2CCC(C(N)=O)CC2)cc1,> 4 mM (inactive)
20,COC(=O)c1ccc2snnc2c1,> 4 mM (inactive)
21,CN1C(=O)N(C)C2NC(=O)NC21 (stereo unspecified),> 4 mM (inactive)

row,Structure (SMILES),Kd
1,Cc1ccc(SCc2nc(-c3cccnc3)no2)cc1,> 4 mM (inactive)
2,O=C(O)CCc1c[nH]c2ccccc12,> 4 mM (inactive)
3,CC(=O)Nc1ccc(S(=O)(=O)N(C)C)cc1,> 4 mM (inactive)
4,O=C(c1ccc2c(c1)OCO2)N1CCC2(CC1)OCCO2,> 4 mM (inactive)
5,CN(C)C(=O)Nc1ccc(F)cc1F,> 4 mM (inactive)
6,Cc1onc(-c2ccccc2)c1CO,> 4 mM (inactive)
7,CCOC(=O)C1CCN(Cc2ccccc2)CC1=O (stereo unspecified),> 4 mM (inactive)
8,O=C1CCCCCN1CO,> 4 mM (inactive)
9,O=c1[nH]c2c(c(=O)n1C1CCCCC1)CCC2,> 4 mM (inactive)
10,Cc1cc(SCC(=O)Nc2nccs2)nc(=O)[nH]1,> 4 mM (inactive)
11,CNC(=S)Nc1ccc(C(=O)O)cc1,> 4 mM (inactive)
12,CC1=CC(C)C(C(=O)O)C(C(=O)N2CCN(C)CC2)C1 (stereo unspecified),> 4 mM (inactive)
13,CN1C(=O)/C(=C/c2ccccc2O)NC1=S,> 4 mM (inactive)
14,C/C=C(/C)C(=O)O[C@H]1CC[C@@]2(C)[C@@H]3CC[C@H]4[C@]5(O)C[C@H](O)[C@@]6(O)[C@@H](CN7C[C@@H](C)CC[C@H]7[C@@]6(C)O)[C@]5(O)C[C@@]42OC13O,> 4 mM (inactive)
15,O=C(O)c1cc(=O)[nH]c2ccccc12,> 4 mM (inactive)
16,Cc1cc(C)n(-c2nc(N)cc(=O)[nH]2)n1,> 4 mM (inactive)
17,COc1cc(C)c2c(c1C=O)Oc1c(c(C)c(O)c3c1C(O)OC3=O)OC2=O (stereo unspecified),> 4 mM (inactive)
18,CSc1nnc2ccc(-c3cccnc3)nn12,> 4 mM (inactive)
19,CCOC(=O)CC1Sc2ccccc2NC1=S (stereo unspecified),> 4 mM (inactive)
20,Cc1ccc2[nH]cc(CCN)c2c1,> 4 mM (inactive)
21,CCOC(=O)c1cnc2n(c1=O)CCS2,> 4 mM (inactive)

row,Structure (SMILES),Kd
1,Cc1ccc(SCc2nc(-c3ccncc3)no2)cc1,> 4 mM (inactive)
2,Cc1nc2ccccc2c2c1C(=O)N(C)C2=O,> 4 mM (inactive)
3,CC(C)c1ccccc1NC(=O)c1cnccn1,> 4 mM (inactive)
4,NC(=O)c1ccsc1NC(=O)c1ccco1,> 4 mM (inactive)
5,N#CCN1C(=O)c2ccccc2S1(=O)=O,> 4 mM (inactive)
6,NC(=O)CCS(=O)(=O)CCN1CCOCC1,> 4 mM (inactive)
7,O=C(NCc1ccco1)c1nc2ncccn2n1,> 4 mM (inactive)
8,O=C(Nc1ccon1)c1cc2c(s1)CCCC2,> 4 mM (inactive)
9,N#Cc1sc2nc3c(c(-c4cccnc4)c2c1N)CCC3,> 4 mM (inactive)
10,COC(=O)c1noc(C)c1C(C)=O,> 4 mM (inactive)
11,S=c1ccc(N2CCCCC2)n[nH]1,> 4 mM (inactive)
12,NC(=O)C1CCN(C(=O)c2ccccc2)CC1,> 4 mM (inactive)
13,CC1(C)C2CC[C@]3(C)C(C(=O)C=C4[C@@H]5C[C@@](C)(C(=O)O)CC[C@]5(C)CC[C@]43C)[C@@]2(C)CC[C@@H]1O (stereo partly specified),> 4 mM (inactive)
14,NC1CN2CCC1CC2 (stereo unspecified),> 4 mM (inactive)
15,Cc1nc2ccc(F)cc2cc1C(=O)NCc1ccco1,> 4 mM (inactive)
16,Cc1ccc(-c2cc(C(=O)N3CCCC3)no2)cc1,> 4 mM (inactive)
17,NCC1CN(Cc2ccccc2)CCO1 (stereo unspecified),> 4 mM (inactive)
18,CC(=O)NC1(NC(C)=O)CCN(C)CC1,> 4 mM (inactive)
19,COC(=O)C[C@H]1C2(C)CC34OC5(C)O[C@@]6([C@H](OC(C)=O)C(OC(C)=O)[C@]7(C)C(/C(=C(/O)C(C)C)C(=O)O[C@H]7c7ccoc7)[C@@]6(O5)[C@H](OC(C)=O)[C@@]3(O)C2OC(=O)C(C)C)[C@]14C (stereo partly specified),> 4 mM (inactive)
20,Cc1ccc(NC(=O)CN2C(=O)CSC2=O)cc1,> 4 mM (inactive)
21,Nc1c(F)c(F)nc(F)c1F,> 4 mM (inactive)

row,Structure (SMILES),Kd
1,NC1=NC(=O)/C(=C/c2ccc(O)c(Cl)c2)S1,> 4 mM (inactive)
2,Cc1ccccc1NC(=O)CSc1ccnc(=O)[nH]1,> 4 mM (inactive)
3,Cc1[nH]c2ccccc2c1C(=O)CSc1ncn[nH]1,> 4 mM (inactive)
4,O=C1CSC(=Nc2cc(Cl)ccc2Cl)N1,> 4 mM (inactive)
5,OCC12COC3c4ccccc4C(OC1)N32 (stereo unspecified),> 4 mM (inactive)
6,O=C(Nc1ccncc1)c1c(F)cccc1F,> 4 mM (inactive)
7,CC(=O)NC(=S)Nc1ccccc1C,> 4 mM (inactive)
8,Cc1cc(C)n(-c2nc(C)nc(N)n2)n1,> 4 mM (inactive)
9,CCNC(CC(=O)Nc1ccc(F)cc1)C(=O)O (stereo unspecified),> 4 mM (inactive)
10,COc1ccc2c3c1O[C@H]1C[C@@H](O)C=C[C@@]31CCN(C)C2,> 4 mM (inactive)
11,Cc1ccc(CN2CCNC(=O)C2CC(=O)O)o1 (stereo unspecified),> 4 mM (inactive)
12,COc1cc2c(cc1OC)[C@@H]1C(=O)c3ccc4c(c3O[C@@H]1CO2)C=CC(C)(C)O4,> 4 mM (inactive)
13,CC1=C2[C@H]3OC(=O)[C@@H](C)[C@@H]3CC[C@@]2(C)C=CC1=O,> 4 mM (inactive)
14,Cc1c(C(=O)Nc2ccccn2)oc2ccccc12,> 4 mM (inactive)
15,Cc1nnc(NCc2ccc3c(c2)OCO3)[nH]c1=O,> 4 mM (inactive)
16,O=C1Nc2ccccc2C1(O)Cc1ccncc1 (stereo unspecified),> 4 mM (inactive)
17,Cn1cnc2ccc([N+](=O)[O-])cc2c1=O,> 4 mM (inactive)
18,CC(=O)O[C@H]1C[C@@H](OC(C)=O)C(C)(C)C2C[C@@H](OC(C)=O)[C@]3(C)C([C@H](OC(C)=O)C[C@@]4(C)[C@H](c5ccoc5)OC(=O)[C@H]5O[C@]543)[C@]21C (stereo partly specified),> 4 mM (inactive)
